{"source": "patent US8894993B2", "about": "“Mitochondria-targeted antioxidants” (Natreon Inc., priority 2006, dated 2014)", "key": {"[1]": {"tested_on": "Blood levels of ATP and energy related indices", "experiment": "Blood ATP and energy related indices in mice after restraint stress", "type": "in vivo, Swiss albino mice", "conditions": "25 mg/Kg p.o. 7 days", "experimental": "Swiss albino mice (20±2 g) were fed orally with—(a) 3-OH-DBP and (b) 3,8-(OH)2-DBP (each 25 mg/Kg b.w. per day, for 7 days). In case of the controls, only vehicle (0.8% carboxymethyl cellulose in water) was administered for seven days of the experiment. All the animals of all the groups were subjected to restraint stress (for 60 minutes) on the seventh day of the experiment, 2 hours after drug administration, according to a published method [Figueiredo, H. F., Bodie, B. L., Tauchi, M., Dolgas, C. M. and Herman, J. P. 2003. Endocrinology, 144, 5249-5258]. The model was selected in the present experiment, because restraint stress is a widely used model of acute oxidative stress. Immediately after being exposed to stress, the animals were sacrificed, blood was collected for analysis by HPLC of ATP and related nucleotides [Smolenska, Z., Kaznowska, Z., Zarowny, D., Simmonds, H. A. and Smolenski, R. T. 1999. Rheumatology, 38, 997-1002; Komarova, S. V., Mosharov, E. V., Vitvitsky, V. M. and Ataullakhanov, F. I. 1999. Blood Cell Mol. Dis., 25(13), 170-179; Marquardt, D. L., Gruber, H. E. and Wasserman, S. I. 1984. Proc. Natl. Acad. Sci., 81, 6192-6196], and liver was collected for measurement of superoxide dismutase and catalase activities [Zielinski, S, and Pörtner, H. 2000. Comparative Biochem. Physiol. Part B, 125, 147-[60]. AEC (adenylate energy charge) was calculated according to the method of Atkinson and Walton [Atkinson D E & Walton G M, Adenosine triphosphate conservation in metabolic regulation, J Biol Chem, 242 (1967) 3239] and TAN (total adenine nucleotides) was calculated according to an established method [Spencer M K & Katz A, Role of glycogen in control of glycolysis and IMP formation in human muscle during exercise, Am J Physiol, 260 (1991) E859]."}, "[2]": {"experiment": "Stability of reduced CoQ10 (CoQH2) by 3,8-(OH)2-DBP at different pH, HPLC", "type": "physicochemical"}, "[3]": {"experiment": "Stability of reduced CoQ10 (CoQH2) by 3,8-(OH)2-DBP at different pH, HPLC", "type": "physicochemical", "experimental": "Two mg of solid CoQ10 (SRL, India), in an airtight vial was dissolved in 1 ml of methanol. After thorough vortexing, 5 mg of solid NaBH4 (Merck India) was added, 1 mg at a time, to the yellow colored solution of CoQ10 in methanol and kept in an ice-bath for a few minutes. The vial was kept shut to avoid contact with air but opened occasionally to avoid generation of pressure inside due to accumulation of hydrogen. After the reduction reaction, a clear colorless solution was obtained to which methanolic solution of 3,8-(OH)2-DBP with a concentration of 1 mg/ml (>90% pure) was added in a ratio of 1:1 to obtain a final concentration of the mixture—reduced CoQ10 […] DBP 0.5 mg/ml. This solution was analyzed by HPLC for reduced CoQ10 content at different time intervals. A control was prepared in similar fashion except that no DBP was added. The pH of the solutions was determined to be 8 using pH paper. To obtain solutions of reduced CoQ10 with pH 7 and pH 3, aliquots of concentrated HCl were added to the methanolic solution of reduced CoQ10 at pH 8. Afterwards, a solution of DBP was added and analysis by HPLC at different time intervals was conducted, as before.\nMobile phase—Methanol:Acetonitrile:Ethanol 30:30:40\nDetection—PDA 290 nm for reduced CoQ10", "remark": "listed apart in the source"}, "[4]": {"tested_on": "stress-induced lipid peroxidation of mouse brain", "experiment": "Stress-induced lipid peroxidation of mouse brain (thiobarbituric acid reaction)", "type": "in vivo, Swiss albino mice", "conditions": "oral each 5 mg/Kg b.w. per day for 5 days, hypoxic stress, control 1.169", "experimental": "Swiss albino mice (20±g) were fed orally with—(a) 3,8-(OH)2-DBP; (b) CoQ10; (c) a combination of 3,8-(OH)2-DBP and CoQ10 and (d) 3,8-(OH)2-DBP and CoQ10 in a clathrated form with fusoms (each 5 mg/Kg b.w.), per day, for 5 days. The animals were subjected to hypoxic stress for 1 hour each day for 3 days from the 3rd day of the experiment. After the stipulated time-period, brain and liver of the animals were collected and mitochondria from the liver were separated as described previously (Liu Y, Deng F, Zhao R and Qu S, Chemosphere, 40(8):851-854, 2000). Lipid peroxidation in brain and liver-mitochondria was estimated by the method of Ohkawa et al. (Ohkawa H, Ohishi N and Yagi K, Assay for lipid peroxides in animal tissues by thiobarbituric acid reaction. Anal. Biochem., 95:351-358, 1979)."}}, "data": [{"smiles": "O=c1oc2cc(O)ccc2c2ccc(O)cc12", "note": "[3,8-(OH)2-DBP, 3,8-dihydroxydibenzo-α-pyrone]", "values": [{"measurement": "ADP", "setting": "[1]; mean ± SEM of 6, control 0.14 ± 0.02", "value": "0.09 ± 0.01", "unit": "µM"}, {"measurement": "ATP", "setting": "[1]; mean ± SEM of 6, control 0.67 ± 0.03", "value": "0.64 ± 0.05", "unit": "µM"}, {"measurement": "TAN", "setting": "[1]; mean ± SEM of 6, control 0.76 ± 0.03", "value": "0.76 ± 0.06", "unit": "µM"}, {"measurement": "AEC", "setting": "[1]; mean ± SEM of 6, control 0.89 ± 0.01", "value": "0.90 ± 0.01"}, {"measurement": "ATP/ADP ratio", "setting": "[1]; mean ± SEM of 6, control 4.90 ± 0.32", "value": "6.96 ± 0.49"}, {"measurement": "Regenerated CoQ10 in presence of 3,8-(OH)2-DBP", "setting": "[2]; autoxidation of CoQH2, pH 8, 80 min", "value": 151.28, "unit": "µg/mL"}, {"measurement": "Regenerated CoQ10 in presence of 3,8-(OH)2-DBP", "setting": "[2]; autoxidation of CoQH2, pH 8, 100 min", "value": 202.31, "unit": "µg/mL"}, {"measurement": "Regenerated CoQ10 in presence of 3,8-(OH)2-DBP", "setting": "[3]; autoxidation of CoQH2, pH 8, 0 min", "value": 0, "unit": "µg/mL"}, {"measurement": "Regenerated CoQ10 in presence of 3,8-(OH)2-DBP", "setting": "[3]; autoxidation of CoQH2, pH 8, 20 min", "value": 10.63, "unit": "µg/mL"}, {"measurement": "Regenerated CoQ10 in presence of 3,8-(OH)2-DBP", "setting": "[3]; autoxidation of CoQH2, pH 8, 40 min", "value": 37.37, "unit": "µg/mL"}, {"measurement": "Regenerated CoQ10 in presence of 3,8-(OH)2-DBP", "setting": "[3]; autoxidation of CoQH2, pH 8, 60 min", "value": 99.55, "unit": "µg/mL"}, {"measurement": "Reduced CoQ10 remaining in presence of DBP", "setting": "[3]; pH 3, 0 hour", "value": 100.00, "unit": "%"}, {"measurement": "Reduced CoQ10 remaining in presence of DBP", "setting": "[3]; pH 3, 48 hour", "value": 79.27, "unit": "%"}, {"measurement": "Reduced CoQ10 remaining in presence of DBP", "setting": "[3]; pH 3, 72 hour", "value": 73.91, "unit": "%"}, {"measurement": "Reduced CoQ10 remaining in presence of DBP", "setting": "[3]; pH 7, 0 hour", "value": 100.00, "unit": "%"}, {"measurement": "Reduced CoQ10 remaining in presence of DBP", "setting": "[3]; pH 7, 48 hour", "value": 10.79, "unit": "%"}, {"measurement": "Reduced CoQ10 remaining in presence of DBP", "setting": "[3]; pH 7, 72 hour", "value": 6.33, "unit": "%"}, {"measurement": "Reduced CoQ10 remaining in presence of DBP", "setting": "[3]; pH 8, 0 min, DBP 0.5 mg/ml", "value": 100.00, "unit": "%"}, {"measurement": "Reduced CoQ10 remaining in presence of DBP", "setting": "[3]; pH 8, 40 min, DBP 0.5 mg/ml", "value": 93.44, "unit": "%"}, {"measurement": "Reduced CoQ10 remaining in presence of DBP", "setting": "[3]; pH 8, 60 min, DBP 0.5 mg/ml", "value": 80.21, "unit": "%"}, {"measurement": "Reduced CoQ10 remaining in presence of DBP", "setting": "[3]; pH 8, 80 min, DBP 0.5 mg/ml", "value": 66.57, "unit": "%"}, {"measurement": "Reduced CoQ10 remaining in presence of DBP", "setting": "[3]; pH 8, 100 min, DBP 0.5 mg/ml", "value": 51.85, "unit": "%"}, {"measurement": "protection of reduced CoQ10 from oxidative degradation, in words", "setting": "[3]; pH range 3 to 8", "value": "significantly protects"}, {"measurement": "OD Values at 532 nm (lipid peroxidation)", "setting": "[4]", "value": 1.119}]}]}
